Experimental findings from US20100152128A1, “Antiviral Agents” (priority 2007, published 2010) are described below.

As a reminder, the EC50 is the concentration that produces a half-maximal response.

The subject of the assay is subgenomic HCV Replicon in HuH-7 cells. As to the kind of experiment: Assay for inhibition of HCV RNA replication (replicon, in situ ribonuclease protection SPA). Format: cell-based, Hepatitis C Virus. On the technique in general: A replicon is a self-replicating genome or part of one, used to study replication in cells.
Where [1] appears, read: Hepatitis C virus, HuH-7 hepatoma cells containing a subgenomic HCV Replicon, inhibition of HCV RNA replication, read-out: EC50.
The mark [2] stands for this setting: HuH-7 hepatoma cells containing a subgenomic HCV Replicon, inhibition of HCV RNA replication, read-out: EC50.

Like-named read-outs stand apart in the source and are kept apart here.

Regarding `CCCC(CCC)COC(=O)[C@H](C)NP(=O)(O)OC[C@H]1O[C@@H](n2ccc(N)nc2=O)[C@](C)(O)[C@@H]1O` [Example 2, 5′-O-[hydroxy[[(1S)-1-methyl-2-oxo-2-[(2-propylpentyl)oxy]ethyl]amino]phosphinyl]-2′-C-methylcytidine], the EC50 under setting [1] is 6 µM.
On the same count and under the same terms, with `C[C@H](NP(=O)(O)OC[C@H]1O[C@@H](n2ccc(N)nc2=O)[C@](C)(O)[C@@H]1O)C(=O)OC1CCCCCC1` [Example 4, 5′-O-[[[(1S)-2-(cycloheptyloxy)-1-methyl-2-oxoethyl]amino]hydroxyphosphinyl]-2′-C-methylcytidine] the figure was 9.9 µM.
Regarding `CCCC(CCC)c1nnc([C@H](C)NP(=O)(O)OC[C@H]2O[C@@H](n3ccc(N)nc3=O)[C@](C)(O)[C@@H]2O)o1` [Example 9, 5-O-[hydroxy[[1-[5-(1-propylbutyl)-1,3,4-oxadiazol-2-yl]ethyl]amino]phosphinyl]-2′-C-methylcytidine], the EC50 (Hepatitis C virus, Huh-7) worked out at 10.6 µM.
Turning to `C[C@H](NP(=O)(O)OC[C@H]1O[C@@H](n2ccc(N)nc2=O)[C@](C)(O)[C@@H]1O)C(=O)OC1CCCCCCC1` [Example 5, 5′-O-[[[(1S)-2-(cyclooctyloxy)-1-methyl-2-oxoethyl]amino]hydroxyphosphinyl]-2′-C-methylcytidine], the half-maximal effective concentration (EC50) under setting [1] turned out to be 9.9 µM.
With `CCCC(CCC)c1noc([C@H](C)NP(=O)(O)OC[C@H]2O[C@@H](n3ccc(N)nc3=O)[C@](C)(O)[C@@H]2O)n1` [Example 8, [(3aR, 4aR, 6R, 6aR)-6-(4-amino-2-oxopyrimidin-1(2H)-yl)-3,4-dihydroxy-4-methyltetrahydrofuran-2-yl]methyl hydrogen{(1S)-1-[3-(1-propylbutyl)-1,2,4-oxadiazol-5-yl]ethyl}amidophosphate], under setting [2], the EC50 worked out at 5.4 µM.
Regarding `CCCC(CCC)C(=O)OCCNP(=O)(O)OC[C@H]1O[C@@H](n2ccc3c(N)ncnc32)[C@](C)(O)[C@@H]1O` [Example 11, 5′-O-[hydroxyl[[2-[(1-oxo-2-propylpentyl)oxy]ethyl]amino]phosphinyl]-2′-C-methyl-7-deaza adenosine], the EC50 under setting [1] is 0.7 µM.
Regarding `CCCC(CCC)COC(=O)C(C)NP(=O)(O)OC[C@H]1O[C@@H](n2ccc3c(N)ncnc32)[C@](C)(O)[C@@H]1O` (stereo partly shown) [Example 10, 5′-O-[hydroxyl[[1-methyl-2-oxo-2-[(propylpentyl)oxy]ethyl]amino]phosphinyl]-2′-C-methyl-7-deaza adenosine], under setting [2], the half-maximal effective concentration (EC50) turned out to be 1.1 µM.
